Results from US20250144067A1, “PERSONALIZED STARVATION THERAPY FOR CANCER” (Faeth Therapeutics, Inc., priority 2021, published 2025).

Assays:
[1] = tested on: NCI-H292 lung cancer cells; experiment: FDA drug screening, complete media vs cholesterol-free media without statin (TABLE 1); format: cell-based, human; conditions: for Difference: about 0 neutral
[2] = tested on: NCI-H292 lung cancer cells; experiment: FDA drug screening, complete media vs cholesterol-free media with simvastatin (TABLE 2); format: cell-based, human; conditions: for Cholesterol-free media + simvastatin (0.04 μM) / Complete Media: NCI-H292 cells; for Difference: >0 enhanced anti-cancer activity, about 0 neutral, <0 antagonist
[3] = NCI-H292 cells, cholesterol-free media without statin, FDA drug library screen
[4] = NCI-H292 cells, complete media, FDA drug library screen
[5] = complete vs cholesterol-free media, >0 enhanced anti-cancer activity, <0 antagonist
[6] = drug in cholesterol-free media with simvastatin 0.04 μM
[7] = complete media vs cholesterol-free media + simvastatin (0.04 μM)
[8] = NCI-H292 cells, cholesterol-free media without statin
[9] = complete vs cholesterol-free media, greater than 0 enhanced anti-cancer activity, below 0 antagonists
[10] = Complete minus Cholesterol-free, >0 enhanced anti-cancer activity, <0 antagonist
[11] = FDA drug library screen, cholesterol-free media with simvastatin 0.04 μM
[12] = FDA drug library screen, complete media
[13] = complete media minus cholesterol-free media + simvastatin
[14] = Complete minus Cholesterol-free, greater than 0 enhanced anti-cancer activity, below 0 antagonist
[15] = NCI-H292 cells, FDA drug library screen, cholesterol-free media without statin
[16] = NCI-H292 cells, FDA drug library screen, complete media
[17] = cholesterol-free media with simvastatin 0.04 μM, FDA drug library screen (TABLE 2)
[18] = complete media, FDA drug library screen (TABLE 2)
[19] = complete media minus cholesterol-free media + simvastatin (0.04 μM)
[20] = FDA library drug in cholesterol-free media with simvastatin 0.04 μM
[21] = FDA library drug in complete media
[22] = Complete minus Cholesterol-free, greater than 0 enhanced anti-cancer activity, below 0 antagonists
[23] = NCI-H292 cells in cholesterol-free media without statin
[24] = NCI-H292 cells in complete media

CC1(C)S[C@@H]2[C@H](NC(=O)C(c3ccccc3)S(=O)(=O)O)C(=O)N2[C@H]1C(=O)O (stereo partly drawn) [Sulbenicillin (disodium)]
Cholesterol-free [1, 3]: 0.8061 | Complete [1, 4]: 1.226 | Difference [1, 5]: 0.42 | Cholesterol-free media + simvastatin (0.04 μM) [2, 6]: 1.164 | Complete Media ([2]; drug in complete media): 0.9986 | Difference [2, 7]: −0.17

Nc1ccc(S(=O)(=O)NC(=O)c2ccccc2)cc1 [Sulfabenzamide]
Cholesterol-free [1, 8]: 1.412 | Complete ([1]; NCI-H292 cells, complete media): 1.023 | Difference [1, 9]: −0.39 | Cholesterol-free media + simvastatin (0.04 μM) [2, 6]: 1.231 | Complete Media ([2]; drug in complete media): 1.041 | Difference [2, 7]: −0.19

NC(=O)NS(=O)(=O)c1ccc(N)cc1 [Sulfacarbamide]
Difference [1, 10]: 0.04 | Cholesterol-free [1, 3]: 0.9085 | Complete [1, 4]: 0.9465 | Cholesterol-free media + simvastatin (0.04 μM) [2, 11]: 0.9379 | Complete Media [2, 12]: 1.144 | Difference [2, 13]: 0.21

CC(=O)NS(=O)(=O)c1ccc(N)cc1 [Sulfacetamide (Sodium)]
Difference [1, 10]: 0.04 | Cholesterol-free [1, 3]: 0.8669 | Complete [1, 4]: 0.9047 | Cholesterol-free media + simvastatin (0.04 μM) [2, 11]: 1.134 | Complete Media [2, 12]: 1.384 | Difference [2, 13]: 0.25

CC(=O)NS(=O)(=O)c1ccc(N)cc1 [Sulfacetamide]
Difference [1, 14]: −0.14 | Cholesterol-free [1, 15]: 1.146 | Complete [1, 16]: 1.008 | Cholesterol-free media + simvastatin (0.04 μM) [2, 11]: 0.6778 | Complete Media [2, 12]: 0.8793 | Difference [2, 13]: 0.20

Nc1ccc(S(=O)(=O)Nc2ccc(Cl)nn2)cc1 [Sulfachloropyridazine]
Difference [1, 14]: −0.17 | Cholesterol-free [1, 15]: 1.057 | Complete [1, 16]: 0.8847 | Cholesterol-free media + simvastatin (0.04 μM) [2, 17]: 0.9751 | Complete Media [2, 18]: 0.932 | Difference [2, 19]: −0.04

Nc1ccc(S(=O)(=O)Nc2ncccn2)cc1 [Sulfadiazine (sodium)]
Difference [1, 14]: −0.12 | Cholesterol-free [1, 15]: 1.217 | Complete [1, 16]: 1.095 | Cholesterol-free media + simvastatin (0.04 μM) [2, 6]: 1.234 | Complete Media ([2]; drug in complete media): 0.9756 | Difference [2, 7]: −0.26

Nc1ccc(S(=O)(=O)Nc2ncccn2)cc1 [Sulfadiazine]
Cholesterol-free [1, 8]: 1.21 | Complete ([1]; NCI-H292 cells, complete media): 0.7631 | Difference [1, 9]: −0.45 | Cholesterol-free media + simvastatin (0.04 μM) ([2]; cholesterol-free media with simvastatin 0.04 μM, cell growth value in FDA drug screen): 1.499 | Complete Media ([2]; complete media, cell growth value in FDA drug screen): 1.555 | Difference [2, 13]: 0.06

COc1cc(NS(=O)(=O)c2ccc(N)cc2)nc(OC)n1 [Sulfadimethoxine (sodium)]
Difference [1, 10]: −0.30 | Cholesterol-free [1, 8]: 1.031 | Complete ([1]; NCI-H292 cells, complete media): 0.7288 | Cholesterol-free media + simvastatin (0.04 μM) [2, 20]: 1.876 | Complete Media [2, 21]: 1.521 | Difference [2, 7]: −0.35

COc1cc(NS(=O)(=O)c2ccc(N)cc2)nc(OC)n1 [Sulfadimethoxine]
Cholesterol-free [1, 8]: 1.234 | Complete ([1]; NCI-H292 cells, complete media): 0.8763 | Difference [1, 9]: −0.36 | Cholesterol-free media + simvastatin (0.04 μM) [2, 11]: 0.819 | Complete Media [2, 12]: 0.9685 | Difference [2, 13]: 0.15

COc1ncnc(NS(=O)(=O)c2ccc(N)cc2)c1OC [Sulfadoxine]
Difference [1, 10]: −0.27 | Cholesterol-free [1, 8]: 1.26 | Complete ([1]; NCI-H292 cells, complete media): 0.986 | Cholesterol-free media + simvastatin (0.04 μM) [2, 17]: 1.1 | Complete Media [2, 18]: 1.093 | Difference [2, 19]: −0.01

[H]/N=C(/N)NS(=O)(=O)c1ccc(N)cc1 [Sulfaguanidine]
Difference [1, 10]: −0.24 | Cholesterol-free [1, 8]: 1.183 | Complete ([1]; NCI-H292 cells, complete media): 0.939 | Cholesterol-free media + simvastatin (0.04 μM) [2, 6]: 1.092 | Complete Media ([2]; drug in complete media): 0.8866 | Difference [2, 7]: −0.21

COc1nccnc1NS(=O)(=O)c1ccc(N)cc1 [Sulfalene]
Difference [1, 10]: −0.03 | Cholesterol-free [1, 3]: 1.1 | Complete [1, 4]: 1.067 | Cholesterol-free media + simvastatin (0.04 μM) [2, 6]: 1.16 | Complete Media ([2]; drug in complete media): 0.9534 | Difference [2, 7]: −0.21

Cc1ccnc(NS(=O)(=O)c2ccc(N)cc2)n1 [Sulfamerazine]
Difference [1, 22]: −0.49 | Cholesterol-free [1, 23]: 1.498 | Complete [1, 24]: 1.009 | Cholesterol-free media + simvastatin (0.04 μM) [2, 20]: 2.163 | Complete Media [2, 21]: 1.355 | Difference [2, 7]: −0.81

COc1cnc(NS(=O)(=O)c2ccc(N)cc2)nc1 [Sulfameter]
Difference [1, 14]: −0.13 | Cholesterol-free [1, 15]: 0.9159 | Complete [1, 16]: 0.7824 | Cholesterol-free media + simvastatin (0.04 μM) [2, 17]: 0.9816 | Complete Media [2, 18]: 0.9471 | Difference [2, 19]: −0.03

Cc1cc(C)nc(NS(=O)(=O)c2ccc(N)cc2)n1 [Sulfamethazine]
Difference [1, 22]: −0.77 | Cholesterol-free [1, 23]: 1.661 | Complete [1, 24]: 0.8945 | Cholesterol-free media + simvastatin (0.04 μM) [2, 11]: 1.21 | Complete Media [2, 12]: 1.052 | Difference [2, 7]: −0.16

Cc1nnc(NS(=O)(=O)c2ccc(N)cc2)s1 [Sulfamethizole]
Cholesterol-free [1, 3]: 0.6059 | Complete [1, 4]: 1.186 | Difference [1, 5]: 0.58 | Cholesterol-free media + simvastatin (0.04 μM) [2, 17]: 1.154 | Complete Media [2, 18]: 1.13 | Difference [2, 19]: −0.02

Cc1cc(NS(=O)(=O)c2ccc(N)cc2)no1 [Sulfamethoxazole]
Cholesterol-free [1, 8]: 1.301 | Complete ([1]; NCI-H292 cells, complete media): 0.8647 | Difference [1, 9]: −0.44 | Cholesterol-free media + simvastatin (0.04 μM) [2, 6]: 1.223 | Complete Media ([2]; drug in complete media): 1.051 | Difference [2, 7]: −0.17

COc1cc(NS(=O)(=O)c2ccc(N)cc2)ncn1 [Sulfamonomethoxine]
Difference [1, 22]: −0.48 | Cholesterol-free [1, 23]: 1.378 | Complete [1, 24]: 0.8971 | Cholesterol-free media + simvastatin (0.04 μM) [2, 20]: 1.013 | Complete Media [2, 21]: 0.7465 | Difference [2, 7]: −0.27

Nc1ccc(S(N)(=O)=O)cc1 [Sulfanilamide]
Cholesterol-free [1, 8]: 1.317 | Complete ([1]; NCI-H292 cells, complete media): 1.005 | Difference [1, 9]: −0.31 | Cholesterol-free media + simvastatin (0.04 μM) [2, 20]: 1.221 | Complete Media [2, 21]: 0.9133 | Difference [2, 7]: −0.31

Nc1ccc(S(=O)(=O)Nc2ccnn2-c2ccccc2)cc1 [Sulfaphenazole]
Difference [1, 14]: −0.18 | Cholesterol-free [1, 15]: 1.174 | Complete [1, 16]: 0.9989 | Cholesterol-free media + simvastatin (0.04 μM) [2, 11]: 1.123 | Complete Media [2, 12]: 1.024 | Difference [2, 7]: −0.10

Nc1ccc(S(=O)(=O)Nc2ccccn2)cc1 [Sulfapyridine]
Difference [1, 10]: −0.02 | Cholesterol-free [1, 3]: 0.8112 | Complete [1, 4]: 0.7909 | Cholesterol-free media + simvastatin (0.04 μM) [2, 11]: 1.045 | Complete Media [2, 12]: 1.844 | Difference [2, 13]: 0.80

O=C(O)c1cc(/N=N/c2ccc(S(=O)(=O)Nc3ccccn3)cc2)ccc1O [Sulfasalazine]
Difference [1, 10]: −0.20 | Cholesterol-free [1, 8]: 1.104 | Complete ([1]; NCI-H292 cells, complete media): 0.9081 | Cholesterol-free media + simvastatin (0.04 μM) [2, 17]: 1.17 | Complete Media [2, 18]: 1.155 | Difference [2, 19]: −0.01

Nc1ccc(S(=O)(=O)Nc2nccs2)cc1 [Sulfathiazole (sodium)]
Difference [1, 10]: −0.22 | Cholesterol-free [1, 8]: 1.264 | Complete ([1]; NCI-H292 cells, complete media): 1.047 | Cholesterol-free media + simvastatin (0.04 μM) [2, 20]: 1.852 | Complete Media [2, 21]: 1.04 | Difference [2, 7]: −0.81

O=C1C(CC[S+]([O-])c2ccccc2)C(=O)N(c2ccccc2)N1c1ccccc1 (stereo not drawn) [Sulfinpyrazone]
Cholesterol-free [1, 8]: 1.3 | Complete ([1]; NCI-H292 cells, complete media): 0.9417 | Difference [1, 9]: −0.36 | Cholesterol-free media + simvastatin (0.04 μM) [2, 6]: 1.076 | Complete Media ([2]; drug in complete media): 0.9093 | Difference [2, 7]: −0.17
